Common to all, as to experiment: Antifungal activity (GI80), growth inhibition in YPD20 medium by absorbance at 600 nm
What all share (assay type): cell-based

The test system of one experiment is C. albicans ATCC MYA-573. The conditions noted are these: minimum concentration for at least 80% cell growth inhibition, 37° C., absorbance 600 nm; for IC80: Candida albicans, read-out: GI80 (μg/ml) C. albicans ATCC MYA-573. On the procedure: (§1) The antifungal activity of the compounds of the invention was determined according to the method mentioned below.
(§2) An YPD20 medium (1% yeast extract, 2% peptone, 20% glucose) was used,
(§3) (2) Preparation of Cell Liquid for Inoculation:
(§4) Cells incubated overnight with Sabouraud dextrose agar at 30° C. were suspended in 0.1% Tween 80-added saline, and then added to a concentrated medium (1.33% yeast extract, 2.67% peptone, 13.33% glucose) so that the final cell concentration could be 5×10^3 cells/ml, thereby preparing a cell liquid for inoculation.
(§5) (3) Production of Chemical Dilution Plate:
(§6) A metered sample was dissolved in dimethyl sulfoxide, and a 2-fold dilution series was prepared using dimethyl sulfoxide. A chemical dilution of 2 μl each was added to a flat-bottom 96-well plate with 40% glucose (48 μl) put in each well, thereby producing a chemical dilution plate.
(§7) (4) Inoculation and Cultivation of Cell Liquid:
(§8) The cell liquid (150 μl) prepared in (2) was added to the chemical dilution plate produced in (3), followed by aerobic static cultivation at 37° C.
(§9) (5) Determination of Antifungal Activity (GI80 Value):
(§10) After cultivation for […], the plate was stirred, and its absorbance (600 nm) was measured. Based on the absorbance as the index, the minimum chemical concentration for at least 80% cell growth inhibition relative to the cell growth in the chemical-free well was computed as a GI80 value.

In another experiment the test system is C. albicans ATCC90028. The conditions noted are these: 37° C., absorbance 600 nm; for IC80: Candida albicans, ATCC90028, minimum concentration for at least 80% cell growth inhibition, read-out: GI80 (μg/ml) C. albicans ATCC90028; for GI80 (μg/ml) C. albicans ATCC90028: minimum concentration for at least 80% cell growth inhibition. On the procedure: as §1, §2, §3, §4, §5, §6, §7, §8, §9, §10

A further experiment relates to C. glabrata ATCC48435. The conditions noted are these: 37° C., absorbance 600 nm; for IC80: Nakaseomyces glabratus, ATCC48435, minimum concentration for at least 80% cell growth inhibition, read-out: GI80 (μg/ml) C. glabrata ATCC48435; for GI80 (μg/ml) C. glabrata ATCC48435: minimum concentration for at least 80% cell growth inhibition. The protocol: as §1, §2, §3, §4, §5, §6, §7, §8, §9, §10

≈ marks a conversion by molar mass, not a printed value.

Consider `Cc1c(-c2ccccc2)c(N2CC[C@H](N(C)C)C2)c2oc(N3CC(C(=O)O)C3)nc2c1C#N` [Example 67, 1-{4-Cyano-7-[(3S)-3-(dimethylamino)pyrrolidin-1-yl]-5-methyl-6-phenyl-1,3-benzoxazol-2-yl}-azetidine-3-carboxylic acid], for which the IC80 in the experiment on C. albicans ATCC MYA-573 was greater than 4 µg/mL; with C. albicans ATCC90028, greater than 4 µg/mL; in the experiment with C. glabrata ATCC48435, 0.25 µg/mL (≈ 0.561 µM).

With `Cc1c(-c2ccccc2)c(N2CC[C@H](N(C)C)C2)c2oc(N(C)Cc3ncn[nH]3)nc2c1C#N` [Example 72, 7-[(3S)-3-(Dimethylamino)pyrrolidin-1-yl]-5-methyl-2-[methyl(1H-1,2,4-triazol-5-ylmethyl)amino]-6-phenyl-1,3-benzoxazole-4-carbonitrile], the IC80 in the experiment on C. albicans ATCC MYA-573 stood at 0.5 µg/mL (≈ 1.1 µM); in the experiment with C. albicans ATCC90028 it was 0.5 µg/mL (≈ 1.1 µM); in the experiment on C. glabrata ATCC48435 it was 0.125 µg/mL (≈ 0.274 µM).

With `Cc1c(-c2cc(F)cc(F)c2)c(N2CC[C@H](N(C)C)C2)c2oc(C3CC3)nc2c1C#N` [Example 82, 2-Cyclopropyl-6-(3,5-difluorophenyl)-7-[(3S)-3-(dimethylamino)pyrrolidin-1-yl]-5-methyl-1,3-benzoxazole-4-carbonitrile], the IC80 in the experiment with C. albicans ATCC MYA-573 is 0.125 µg/mL (≈ 0.296 µM); with C. albicans ATCC90028, 0.063 µg/mL (≈ 0.149 µM); with C. glabrata ATCC48435, 0.032 µg/mL (≈ 0.0757 µM).

As to `Cc1c(-c2cccc(F)c2F)c(N2CC[C@H](N(C)C)C2)c2oc(C3CC3)nc2c1C#N` [Example 83, 2-Cyclopropyl-6-(2,3-difluorophenyl)-7-[(3S)-3-(dimethylamino)pyrrolidin-1-yl]-5-methyl-1,3-benzoxazole-4-carbonitrile], the IC80 in the experiment on C. albicans ATCC MYA-573 came to 0.5 µg/mL (≈ 1.18 µM); in the experiment on C. albicans ATCC90028, 0.5 µg/mL (≈ 1.18 µM); with C. glabrata ATCC48435, 0.125 µg/mL (≈ 0.296 µM).

For the compound `Cc1c(-c2ccccc2)c(N2CC[C@H](N(C)C)C2)c2oc(-c3nccs3)nc2c1C#N` [Example 93, 7-[(3S)-3-(Dimethylamino)pyrrolidin-1-yl]-5-methyl-6-phenyl-2-(1,3-thiazol-2-yl)-1,3-benzoxazole-4-carbonitrile], the IC80 in the experiment with C. albicans ATCC MYA-573 came out at 0.125 µg/mL (≈ 0.291 µM); in the experiment on C. albicans ATCC90028 it was 0.125 µg/mL (≈ 0.291 µM); with C. glabrata ATCC48435, 0.032 µg/mL (≈ 0.0745 µM).

Regarding `Cc1c(-c2ccccc2)c(N2CC[C@H](N(C)C)C2)c2oc(C3CCC3)nc2c1C#N` [Example 106, 2-Cyclobutyl-7-[(3S)-3-(dimethylamino)pyrrolidin-1-yl]-5-methyl-6-phenyl-1,3-benzoxazole-4-carbonitrile], the IC80 in the experiment with C. albicans ATCC MYA-573 was 0.125 µg/mL (≈ 0.312 µM); with C. albicans ATCC90028, 0.063 µg/mL (≈ 0.157 µM); in the experiment on C. glabrata ATCC48435, less than 0.016 µg/mL.

For `Cc1c(-c2ccccc2)c(N2CC[C@H](N(C)C)C2)c2oc(Cc3ccco3)nc2c1C#N` [Example 122, 7-[(3S)-3-(Dimethylamino)pyrrolidin-1-yl]-2-(2-furylmethyl)-5-methyl-6-phenyl-1,3-benzoxazole-4-carbonitrile], the IC80 in the experiment with C. albicans ATCC MYA-573 amounted to 0.5 µg/mL (≈ 1.17 µM); with C. albicans ATCC90028 it was 0.5 µg/mL (≈ 1.17 µM); with C. glabrata ATCC48435, 0.125 µg/mL (≈ 0.293 µM).

Take `CC(=O)NC1CN(c2nc3c(C#N)c(C)c(-c4ccccc4)c(N4CC[C@H](N(C)C)C4)c3o2)C1` [Example 126]: the “GI80 (μg/ml) C. albicans ATCC MYA-573” value in the experiment on C. albicans ATCC MYA-573 was 0.5 µg/mL (≈ 1.09 µM). The “GI80 (μg/ml) C. albicans ATCC90028” value in the experiment on C. albicans ATCC90028 is 0.5 µg/mL (≈ 1.09 µM). Also, in the experiment on C. glabrata ATCC48435, the “GI80 (μg/ml) C. glabrata ATCC48435” value is 0.125 µg/mL (≈ 0.273 µM).

With `Cc1c(-c2ccccc2)c(N2CC[C@H](N(C)C)C2)c2oc(N3CCCC3=O)nc2c1C#N` [Example 129], the “GI80 (μg/ml) C. albicans ATCC MYA-573” value in the experiment on C. albicans ATCC MYA-573 is 0.5 µg/mL (≈ 1.16 µM). For the same compound, the “GI80 (μg/ml) C. albicans ATCC90028” value with C. albicans ATCC90028 worked out at 0.25 µg/mL (≈ 0.582 µM). In addition, the “GI80 (μg/ml) C. glabrata ATCC48435” value in the experiment with C. glabrata ATCC48435 turned out to be 0.063 µg/mL (≈ 0.147 µM).

Regarding `CN[C@H]1CCN(c2c(-c3ccccc3)c(C)c(C#N)c3nc(C(=O)N(C)CCF)oc23)C1` [Example 134, 4-Cyano-N-(2-fluoroethyl)-N,5-dimethyl-7-[(3S)-3-(methylamino)pyrrolidin-1-yl]-6-phenyl-1,3-benzoxazole-2-carboxamide], the figures for the IC80 in the experiment with C. albicans ATCC MYA-573, in the experiment on C. albicans ATCC90028 and in the experiment on C. glabrata ATCC48435 were 0.5 µg/mL (≈ 1.15 µM), 0.5 µg/mL (≈ 1.15 µM) and 0.125 µg/mL (≈ 0.287 µM), respectively.

For `CN[C@H]1CCN(c2c(-c3ccccc3)c(CF)c(C#N)c3nc(C4CC4)oc23)C1` [Example 140, 2-Cyclopropyl-5-fluoromethyl-7-[(3S)-3-(methylamino)pyrrolidin-1-yl]-6-phenyl-1,3-benzoxazole-4-carbonitrile], the IC80 worked out at 0.5 µg/mL (≈ 1.28 µM) with C. albicans ATCC MYA-573, 0.5 µg/mL (≈ 1.28 µM) with C. albicans ATCC90028 and 0.125 µg/mL (≈ 0.32 µM) in the experiment with C. glabrata ATCC48435.

As to `Cc1c(-c2ccsc2)c(N2CC[C@H](N(C)C)C2)c2oc(C3CC3)nc2c1C#N` [Example 144-1, 2-Cyclopropyl-7-[(3S)-3-(dimethylamino)pyrrolidin-1-yl]-5-methyl-6-(thiophen-3-yl)-1,3-benzoxazole-4-carbonitrile], the IC80 in the experiment on C. albicans ATCC MYA-573 turned out to be 0.25 µg/mL (≈ 0.637 µM); with C. albicans ATCC90028, 0.25 µg/mL (≈ 0.637 µM); with C. glabrata ATCC48435, 0.032 µg/mL (≈ 0.0815 µM).

With `Cc1c(-c2cc(F)ccc2F)c(N2CC[C@H](N(C)C)C2)c2oc(C3CC3)nc2c1C#N` [Example 144-5, 2-Cyclopropyl-6-(2,5-difluorophenyl)-7-[(3S)-3-(dimethylamino)pyrrolidin-1-yl]-5-methyl-1,3-benzoxazole-4-carbonitrile], the IC80 with C. albicans ATCC MYA-573 is 0.25 µg/mL (≈ 0.592 µM); in the experiment with C. albicans ATCC90028, 0.125 µg/mL (≈ 0.296 µM); in the experiment on C. glabrata ATCC48435, 0.032 µg/mL (≈ 0.0757 µM).

`COc1cccc(-c2c(C)c(C#N)c3nc(C4CC4)oc3c2N2CC[C@H](N(C)C)C2)c1` [Example 144-11, 2-Cyclopropyl-7-[(3S)-3-(dimethylamino)pyrrolidin-1-yl]-6-(3-methoxyphenyl)-5-methyl-1,3-benzoxazole-4-carbonitrile]: the figures for the IC80 in the experiment with C. albicans ATCC MYA-573, in the experiment with C. albicans ATCC90028 and with C. glabrata ATCC48435 were 0.5 µg/mL (≈ 1.2 µM), 0.25 µg/mL (≈ 0.6 µM) and 0.125 µg/mL (≈ 0.3 µM), respectively.

As for `CN[C@H]1CCN(c2c(-c3cccs3)c(C)c(C#N)c3nc(C(=O)N(C)C)oc23)C1` [Example 145, 4-Cyano-N,N,5-trimethyl-7-[(3S)-3-(methylamino)pyrrolidin-1-yl]-6-(thiophen-2-yl)-1,3-benzoxazole-2-carboxamide], the IC80 in the experiment with C. albicans ATCC MYA-573 stood at 0.5 µg/mL (≈ 1.22 µM); with C. albicans ATCC90028 it was 0.5 µg/mL (≈ 1.22 µM); in the experiment with C. glabrata ATCC48435, 0.125 µg/mL (≈ 0.305 µM).

Turning to `CN[C@H]1CCN(c2c(-c3cccc(Cl)c3)c(C)c(C#N)c3nc(C(=O)N(C)C)oc23)C1` [Example 146, 6-(3-Chlorophenyl)-4-cyano-N,N,5-trimethyl-7-[(3S)-3-(methylamino)pyrrolidin-1-yl]-1,3-benzoxazole-2-carboxamide], the IC80 stood at 0.25 µg/mL (≈ 0.571 µM) in the experiment with C. albicans ATCC MYA-573, 0.125 µg/mL (≈ 0.285 µM) in the experiment with C. albicans ATCC90028 and 0.125 µg/mL (≈ 0.285 µM) with C. glabrata ATCC48435.

With `CN[C@H]1CCN(c2c(-c3cccc(C)c3)c(C)c(C#N)c3nc(C(=O)N(C)C)oc23)C1` [Example 146-2, 4-Cyano-N,N,5-trimethyl-7-[(3S)-3-(methylamino)pyrrolidin-1-yl]-6-(3-methylphenyl)-1,3-benzoxazole-2-carboxamide], the results for the IC80 in the experiment with C. albicans ATCC MYA-573, in the experiment with C. albicans ATCC90028 and in the experiment with C. glabrata ATCC48435 were 0.25 µg/mL (≈ 0.599 µM), 0.125 µg/mL (≈ 0.299 µM) and 0.063 µg/mL (≈ 0.151 µM), respectively.

For `Cc1c(-n2cccc2)c(N2CC[C@H](N(C)C)C2)c2oc(C3CC3)nc2c1C#N` [Example 151, 2-Cyclopropyl-7-[(3S)-3-(dimethylamino)pyrrolidin-1-yl]-5-methyl-6-(pyrrol-1-yl)-1,3-benzoxazole-4-carbonitrile], the IC80 in the experiment on C. albicans ATCC MYA-573 turned out to be 1 µg/mL (≈ 2.66 µM); in the experiment on C. albicans ATCC90028, 2 µg/mL (≈ 5.33 µM); in the experiment with C. glabrata ATCC48435, 0.25 µg/mL (≈ 0.666 µM).

Regarding `Cc1c(-c2ccccc2)c(N2CCC[C@H]2CN(C)C)c2oc(C3CC3)nc2c1C#N` [Example 154, 2-Cyclopropyl-7-{(2S)-2-[(dimethylamino)methyl]pyrrolidin-1-yl}-5-methyl-6-phenyl-1,3-benzoxazole-4-carbonitrile], the results for the IC80 with C. albicans ATCC MYA-573, with C. albicans ATCC90028 and with C. glabrata ATCC48435 were 1 µg/mL (≈ 2.5 µM), 1 µg/mL (≈ 2.5 µM) and 0.25 µg/mL (≈ 0.624 µM), respectively.
